# Measurements published in patent publication US20080014133A1, “Extraction Of Radionuclides By Crown Ether-Containing Extractants” (priority 2004, published 2008).
# Legend:
# [1] = as described in US patent 4749518; cited from earlier work
# [2] = as described in US patent 4749518; cited from earlier work; remark: listed apart in the source
# [3] = as described in US patent 4749518; cited from earlier work; remark: listed apart in the source
# [4] = as described in US patent 4749518; cited from earlier work; remark: listed apart in the source
# [5] = as described in US patent 4749518; cited from earlier work; remark: listed apart in the source
# [6] = as described in US patent 4749518; cited from earlier work; remark: listed apart in the source
# [7] = Radiation resistance of the extractants (gamma irradiation); format: physicochemical; conditions: for Distribution ratio DMe after irradiation / Distribution ratio after irradiation, % of original: dose 100.0 kGr (10^7 rad); for Usefulness of extractant after irradiation: dose 285.3 kGr
# Text: The radiation resistance of the extractants according to the invention used for extraction radionuclides of strontium or cesium was studied. For this purpose, reaction mixtures consisting of biphase water-organic systems containing extractants based on crown ethers DCH18C6 or DB21C7 in Fluoroheptanol n3 and aqueous nitrate waste solutions, and, for comparison, reaction mixtures containing extractants based on crown ethers Crown XVI or Crown XVII with a cation exchanger—dinanylnaphthalene of sulfonic acids in a matrix solution comprising tributyl phosphate and kerosene were irradiated with gamma-rays […] in a temperature-controlled cell of stainless steel with continuous agitation by bubbling. The maximum integrated radiation dose was equal to 285.3 kGr. The extractant samples were tested and the extraction characteristics were measured before and after the irradiation to determine a decrease of the distribution ratio DMe due to the radiological destruction of extractant components.
# [8] = as described in US patent 4749518; cited from earlier work; remark: listed apart in the source
# [9] = as described in US patent 4749518; cited from earlier work; remark: listed apart in the source
# [10] = as described in US patent 4749518; with dinanylnaphthalene sulfonic acid in tributyl phosphate and kerosene; cited from earlier work
# [11] = Influence of nitric acid concentration on extraction of sodium; format: physicochemical; conditions: crown ether about 0.1 mol/l in Fluoroheptanol n3
# Experimental: Selected for study were extractants containing crown ethers: DB18C6, DTBDB18C6, DCH18C6 or DB21C7 in a concentration of about 0.1 mol/l in Fluoroheptanol n3. Used as experimental solutions were aqueous solutions of sodium nitrate whose concentration was determined using radiometric techniques on previously added aliquot of a sodium-22 isotope.
# [12] = Influence of sodium concentration on extraction of cesium; format: physicochemical; conditions: Cs 1 g/l, nitric acid about 3.0 mol/l
# Experimental: Extraction of cesium was made involving starting solutions containing 1 g/l of cesium in nitric acid having concentration about of 3.0 mol/l at different concentration of sodium. The solutions were treated with the extractants according to the invention containing crown ether DTBDB18C6 in a concentration about of 0.1 mol/l in fluoroheptanol n3.
# [13] = Influence of nitric acid concentration on cesium extraction from solution No.1; format: physicochemical; conditions: solution No.1
# Text: The dependence of extraction of cesium by organic solutions DTBDB18C6 in fluoropentanol n3 and DB21C7 in Fluoroheptanol n3 at a concentration of nitric acid in a starting solution was studied. Solution No.1 whose composition is listed in Table 2 was used as a starting solution.
# [14] = Interaction of extractants with sodium (organic/aqueous phase concentration); format: physicochemical
# Experimental: The characteristics of the extractants according to the invention in the process of extraction of sodium from acidic aqueous solutions of high-level waste were determined. For this purpose, the concentration of sodium in the organic and aqueous phases containing extractants based on DTBDB18C6 or DCH18C6 or DB21C7 in a concentration about of 0.05 mol/l in fluoroheptanol n3 were analyzed.
# [15] = Distribution ratio of cesium extracted in organic solutions of crown ethers (Table 1); format: physicochemical; conditions: Sr and Cs 1 g/l, nitric acid about 3.0 mol/l
# Experimental: (§1) Study was carried out for determining the distribution ratios of radionuclides, for example, strontium or cesium to be extracted by the extractants according to the invention containing various crown ethers as a complexing agent: bis(tert-butylbenzo)-18-crown-6 (subsequently referred to as DTBDB18C6), di-isooctylbenzo-18-crown-6 (subsequently referred to as DIODB18C6), bis(tert-butylcyclohexane-18-crown-6 (subsequently referred to as DTBDCH18C6), di-isooxyldicyclohexane-18-crown-6 (subsequently referred to as DIODCH18C6), bicyclohexane-18-crown-6 (subsequently referred to as DCH18C6) or dibenzo-21-crown-7 (subsequently referred to as DB21C7), in an organic solvent according to the invention: polyfluorinated telomeric alcohol 1,1,7-trihydrododecafluoroheptanol-1 (subsequently referred to as fluoroheptanol n3).
# (§2) For comparison, the distribution ratios of strontium and cesium were determined using extractants containing similar crown ethers in another organic solvent (decane).
# (§3) Taken for the tests were experimental aqueous nitrate solutions containing strontium and cesium in a concentration of 1 g/l with a content of nitric acid of about 3.0 mol/l.
# [16] = Distribution ratio of strontium extracted in organic solutions of crown ethers (Table 1); format: physicochemical; conditions: Sr and Cs 1 g/l, nitric acid about 3.0 mol/l
# Experimental: as §1, §2, §3
# [17] = crown ether 0.1 mole/l in Fluoroheptanol n3
# [18] = crown ether 0.1 mole/l in Decane
compound,measurement,setting,value
"CCCCCCC(O)C1CCC2OCCOCCOC3CCC(C(O)CCCCCC)CC3OCCOCCOC2C1 (mixture of isomers) [Crown XVI, bis-4,4′(5′)[1-hydroxyheptyl]cyclohexo-18-crown-6]","Distribution ratios, Zr",[1],1.41
same,"Distribution ratios, Sr",[2],3.84
same,"Distribution ratios, Cs",[3],0.03
same,"Distribution ratios, Rare-earth",[4],0.06
same,"Distribution ratios, Pd",[5],0.05
same,"Distribution ratios, Y",[6],0.02
same,Distribution ratio before irradiation,[7]; Sr,1.98
same,Distribution ratio DMe after irradiation,[7]; Sr,1.56
same,"Distribution ratio after irradiation, % of original",[7]; Sr,78.78%
same,Loss of the distribution ratio of strontium after irradiation,[7]; dose 100 kGr,about 21%
same,Usefulness of extractant after irradiation,[7],practically useless
same,"Distribution ratios, Ru",[8],0.26
same,"Distribution ratios, Rb",[9],0.11
same,"Distribution ratios, Ba",[10],4.2
"CCCCC(CC)C(O)c1ccc2c(c1)OCCOCCOc1cc(C(O)C(CC)CCCC)ccc1OCCOCCO2 (mixture of isomers) [Crown XVII, bis-4,4′(5′)[1-hydroxy-2-ethylhexyl]benzo-18-crown-6]","Distribution ratios, Zr",[1],2.09
same,"Distribution ratios, Sr",[2],0.06
same,"Distribution ratios, Cs",[3],1.59
same,"Distribution ratios, Rare-earth",[4],0.17
same,"Distribution ratios, Pd",[5],0.22
same,"Distribution ratios, Y",[6],0.02
same,Distribution ratio before irradiation,[7]; Cs,1.59
same,Distribution ratio DMe after irradiation,[7]; Cs,1.04
same,"Distribution ratio after irradiation, % of original",[7]; Cs,65.41%
same,Reduction of the distribution ratio of cesium after irradiation,[7]; dose 100 kGr,35%
same,Usefulness of extractant after irradiation,[7],practically useless
same,"Distribution ratios, Ru",[8],0.31
same,"Distribution ratios, Rb",[9],0.29
same,"Distribution ratios, Ba",[10],0.03
"c1ccc2c(c1)OCCOCCOc1ccccc1OCCOCCO2 [DB18C6, dibenzo-18-crown-6]",Distribution ratios of sodium,[11]; nitric acid 0 mol/l,0.025
same,Distribution ratios of sodium,[11]; nitric acid 0.1 mol/l,0.04
same,Distribution ratios of sodium,[11]; nitric acid 0.5 mol/l,0.15
same,Distribution ratios of sodium,[11]; nitric acid 1.0 mol/l,0.21
same,Distribution ratios of sodium,[11]; nitric acid 3.0 mol/l,0.49
same,Distribution ratios of sodium,[11]; nitric acid 5.0 mol/l,0.67
"CC(C)(C)c1ccc2c(c1)OCCOCCOc1ccc(C(C)(C)C)cc1OCCOCCO2 [DTBDB18C6, bis(tert-butylbenzo)-18-crown-6]",Cesium distribution ratio,"[12]; sodium nitrate 0 mole/l, crown ether about 0.1 mol/l in fluoroheptanol n3",16.0
same,Cesium distribution ratio,[12]; sodium nitrate 0.02 mole/l,9.0
same,Cesium distribution ratio,[12]; sodium nitrate 0.03 mole/l,9.1
same,Cesium distribution ratio,[12]; sodium nitrate 0.04 mole/l,9.3
same,Cesium distribution ratio,[12]; sodium nitrate 0.20 mole/l,3.0
same,Distribution ratios of cesium,"[13]; nitric acid 0 mol/l, Fluoroheptanol n3",2.5
same,Distribution ratios of cesium,[13]; nitric acid 0.1 mol/l,7.1
same,Distribution ratios of cesium,[13]; nitric acid 0.5 mol/l,12.8
same,Distribution ratios of cesium,[13]; nitric acid 1.0 mol/l,12.3
same,Distribution ratios of cesium,[13]; nitric acid 2.0 mol/l,10.3
same,Distribution ratios of cesium,[13]; nitric acid 3.0 mol/l,8.2
same,Distribution ratios of cesium,[13]; nitric acid 4.0 mol/l,6.0
same,Distribution ratios of cesium,[13]; nitric acid 5.0 mol/l,4.0
same,Distribution ratios of cesium,[13]; nitric acid 6.0 mol/l,2.7
same,Distribution ratios of cesium,[13]; nitric acid 7.0 mol/l,1.1
same,Distribution ratios of cesium,[13]; nitric acid 8.0 mol/l,0
same,Distribution ratios of sodium,[11]; nitric acid 0 mol/l,0.03
same,Distribution ratios of sodium,[11]; nitric acid 0.1 mol/l,0.04
same,Distribution ratios of sodium,[11]; nitric acid 0.5 mol/l,0.17
same,Distribution ratios of sodium,[11]; nitric acid 1.0 mol/l,0.27
same,Distribution ratios of sodium,[11]; nitric acid 3.0 mol/l,0.55
same,Distribution ratios of sodium,[11]; nitric acid 5.0 mol/l,0.64
same,Sodium concentration in the organic phase,"[14]; sodium in the aqueous phase 0.01 mol/l, crown ether about 0.05 mol/l in fluoroheptanol n3",0 mol/L
same,Sodium concentration in the organic phase,"[14]; sodium in the aqueous phase 0.1 mol/l, crown ether about 0.05 mol/l",0.035 mol/L
same,Sodium concentration in the organic phase,"[14]; sodium in the aqueous phase 0.2 mol/l, crown ether about 0.05 mol/l",0.07 mol/L
same,Sodium concentration in the organic phase,"[14]; sodium in the aqueous phase 0.4 mol/l, crown ether about 0.05 mol/l",0.14 mol/L
same,Distribution ratio Cesium,[15]; [17],15.45
same,Distribution ratio Strontium,[16]; [17],0.11
CC(C)(C)C1CCC2OCCOCCOC3CC(C(C)(C)C)CCC3OCCOCCOC2C1 (centres unmarked) [DTBDCH18C6],Distribution ratio Strontium,[16]; [18],<0.001
same,Distribution ratio Strontium,[16]; [17],1.91
di-isooctylbenzo-18-crown-6 [DIODB18C6],Distribution ratio Cesium,[15]; [18],0.004
same,Distribution ratio Cesium,[15]; [17],4.23
same,Distribution ratio Strontium,[16]; [18],0.05
same,Distribution ratio Strontium,[16]; [17],0.06
di-isooxyldicyclohexane-18-crown-6 [DIODCH18C6],Distribution ratio Cesium,[15]; [18],0.004
same,Distribution ratio Strontium,[16]; [18],<0.001
same,Distribution ratio Strontium,[16]; [17],0.106
